Source: patent publication US20110098296A1, “Thiazole And Oxazole Kinase Inhibitors” (priority 2007, published 2011)

Key:
Format in all cases: cell-based
Colo205 tumor cells = test: Method B: CellTiter-Glo Growth Inhibition Assay, Colo205; details: Homo sapiens, COLO 205, 72 h, 3 days
Outline: (§1)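 Cells plated (BT474 3,000, HN5 500, Colo205 3,000 per well) in RPMI or DMEM with 10% FBS; compounds added next day, final DMSO 0.3%, then 3 days at 37° C, 5% CO2. Viability by CellTiter-Glo luminescence; percent inhibition versus vehicle, IC50 interpolated by nonlinear regression.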

SK-MEL-3 tumor cells = test: Method C: Cell Growth Inhibition Assay (CellTiter-Glo), SK-MEL-3; details: Homo sapiens, SK-MEL3, 72 h, 3 days, 4-parameter fit
Outline: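 Luminescent ATP signal (CellTiter-Glo, after 30 min room-temperature equilibration) served as a surrogate for cell number after a 3-day compound exposure at 37° C. Cells were plated at 500/well and treated with serially diluted compound at 0.2% DMSO. IC50 values are 4-parameter fits against DMSO-treated wells.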

BT474 tumor cells = test: Method B: CellTiter-Glo Growth Inhibition Assay, BT474; details: Homo sapiens, BT-474, 72 h, 3 days
Outline: as §1

Question: CCNc1nc(-c2cccc(NC(=O)C3CC3)c2)c(-c2ccnc(Nc3ccc(OCCN4CCCC4)c(Cl)c3)n2)s1 [Example 63, N-{3-[5-{2-[(3-Chloro-4-{[2-(1-pyrrolidinyl)ethyl]oxy}phenyl)amino]-4-pyrimidinyl}-2-(ethylamino)-1,3-thiazol-4-yl]phenyl}cyclopropanecarboxamide] was tested. Which IC50 (Colo205 tumor cells) did it give?
Answer: The IC50 was 0.1 to 1 µM.

Question: What about the IC50 (SK-MEL-3 tumor cells) of the same compound?
Answer: The IC50 was 0.1 to 1 µM.

Question: Nc1nc(-c2cccc(C(=O)Nc3c(F)cccc3F)c2)c(-c2ccnc(Nc3cccc(CN4CCCC4)c3)n2)s1 [Example 77, 3-[2-Amino-5-(2-{[3-(1-pyrrolidinylmethyl)phenyl]amino}-4-pyrimidinyl)-1,3-thiazol-4-yl]-N-(2,6-difluorophenyl)benzamide] was tested. Which IC50 (Colo205 tumor cells) did it give?
Answer: The IC50 was less than 0.1 µM.

Question: And the IC50 (SK-MEL-3 tumor cells)?
Answer: The IC50 was less than 0.1 µM.

Question: For Cc1nc(-c2cccc(NC(=O)c3c(F)cccc3F)c2)c(-c2ccnc(Nc3ccc(OCCN(C)C)c(Cl)c3)n2)s1 [Example 103, N-[3-(5-{2-[(3-Chloro-4-{[2-(dimethylamino)ethyl]oxy}phenyl)amino]-4-pyrimidinyl}-2-methyl-1,3-thiazol-4-yl)phenyl]-2,6-difluorobenzamide], which IC50 (Colo205 tumor cells) is on record?
Answer: The IC50 was greater than 1 µM.

Question: CCc1nc(-c2cccc(NC(=O)c3c(F)cccc3F)c2)c(-c2ccnc(Nc3cccc(CN4CCCC4)c3)n2)s1 [Example 115, N-{3-[2-Ethyl-5-(2-{[3-(1-pyrrolidinylmethyl)phenyl]amino}-4-pyrimidinyl)-1,3-thiazol-4-yl]phenyl}-2,6-difluorobenzamide] was tested. Which IC50 (SK-MEL-3 tumor cells) did it give?
Answer: The IC50 was 0.1 to 1 µM.

Question: Cc1nc(-c2cccc(NC(=O)c3cc(F)ccc3F)c2)c(-c2ccnc(Nc3ccc(OCCN(C)C)c(Cl)c3)n2)o1 [Example 142] was tested. Which IC50 (BT474 tumor cells) did it give?
Answer: The IC50 was greater than 1 µM.

Question: And the IC50 (Colo205 tumor cells)?
Answer: Its IC50 is greater than 1 µM.
